We go through two molecules from PMC12207908, “The broad‐spectrum antimicrobial peptide BMAP‐27B potentiates carbapenems against NDM‐producing pathogens in food animals” (mLife, 2025).

In brackets after ≈: the same amount, converted by molar mass. No end group written: not given here. Bounds are passed on as bounds.

The test system of one data set is bacterial suspension. Description: Antimicrobial activity in varying concentrations of proteases and serum. The following applies: trypsin or proteinase K, 1:1 (v/v) incubation 1 h, diluted to 2×MIC, then 18-24 h at 37℃ with bacteria (Figure S1). Type of data set: in vitro ADME. How it is done: The above mixture was added to the bacterial suspension and incubated at 37℃ for 18-24 hours. Finally, the absorbance of […] was measured and used to calculate the survival rate of bacteria.

In data set [1] the test system is CREC6. Type of data set: in vitro ADME, Escherichia coli. On the procedure:
(§1) The antibacterial activity of the treated peptide was determined using CREC6 and CRKP2 as models. Bacterial colony survival was quantified by measuring the absorbance at 600 nm using a microplate reader. The activity of the peptide was also determined in the presence of NaCl to assess its salt sensitivity, with a final NaCl concentration of 400 mM. […] The bactericidal efficacy of BMAP‐27B against bacteria in SIF or SGF was evaluated using the plate counting method at different time points.

Data set [2] is classed as binding. The settings on record: pH 7.4. On the procedure: The detailed steps of molecular docking are provided in the Supporting Information. Microcalorimetric experiments were conducted to examine the interaction between BMAP‐27B and the divalent cation zinc (Zn^2+) using ITC to determine the binding affinity of BMAP‐27B for Zn^2+. Both BMAP‐27B and Zn^2+ were dissolved in PBS (pH 7.4). Before the experiment, all samples were degassed in a sonication bath for 10 min. At 25°C, Zn^2+ was sequentially injected into the calorimetric cell containing BMAP‐27B, with a total of 25 injections performed, allowing for a 180‐s equilibration interval between injections. The resulting data were analyzed using software to calculate K d.

A further data set deals with BALB/c mice. Description: In vivo biocompatibility. The settings on record: 5, 10, and 20 mg/kg intraperitoneal, once daily. How it is done:
Male BALB/c mice (6–8 weeks of age, 18 ± 2 g) were purchased from Tengxin Biotechnology Co., Ltd., for the animal studies. Healthy male BALB/c mice were randomly divided into four groups, with six mice per group. Mice in the three experimental groups received intraperitoneal injections of peptide solutions at doses of 5, 10, and 20 mg/kg, while the control group received injections of PBS. Injections were administered once daily for five consecutive days, and the body weight of each mouse was recorded daily. On the sixth day, the mice were euthanized under deep anesthesia and blood samples were collected for biochemical analysis, including AST, CREA, UREA, and ALT. The livers and kidneys were subsequently weighed, fixed in 4% paraformaldehyde, and subjected to histopathological examination using H&E staining.

Another data set concerns Acinetobacter baumannii. Type of data set: cell-based. How it is done: (§2) The MIC of BMAP‐27B and other antibiotics was determined using the broth microdilution method, following the guidelines established by the Clinical and Laboratory Standards Institute (CLSI). Briefly, the bacterial cultures were grown to the logarithmic growth phase and subsequently diluted in Mueller–Hinton broth (MHB) to achieve a final concentration of 1 × 10^6 CFU/ml. BMAP‐27B and the other antibiotics were prepared in twofold serial dilutions in MHB and mixed with an equal volume of bacterial suspension in 96‐well polypropylene microtiter plates.

A further data set has as its system CREC6 and CRKP2. Type of data set: in vitro ADME, Escherichia coli and Klebsiella pneumoniae. On the procedure:
as §1

The test system of the next data set is CREC7. Description: MIC, broth microdilution. The settings on record: Escherichia coli, MHB, 1 × 10^6 CFU/ml, 16–18 h, 37°C, independent triplicates. Type of data set: cell-based. How it is done:
as §2

For another data set, the system named is P. aeruginosa UCBPP-PA14. Description: MIC, broth microdilution. Type of data set: cell-based. The following applies: Pseudomonas aeruginosa, MHB, 1 × 10^6 CFU/ml, 16–18 h, 37°C, independent triplicates. How it is done:
as §2

Another data set concerns CREC5. Description: MIC, broth microdilution. The settings on record: Escherichia coli, MHB, 1 × 10^6 CFU/ml, 16–18 h, 37°C, independent triplicates. Type of data set: cell-based. How it is done:
as §2

The test system of the next data set is CRCB1. Description: MIC, broth microdilution. Type of data set: cell-based. The settings on record: Citrobacter, MHB, 1 × 10^6 CFU/ml, 16–18 h, 37°C, independent triplicates. On the procedure:
as §2

The subject of the next data set is CRCB3. Description: MIC, broth microdilution. Type of data set: cell-based. The following applies: Citrobacter, MHB, 1 × 10^6 CFU/ml, 16–18 h, 37°C, independent triplicates. On the procedure:
as §2

Data set [3] relates to CRKP2. Description: MIC, broth microdilution. The following applies: Klebsiella pneumoniae, MHB, 1 × 10^6 CFU/ml, 16–18 h, 37°C, independent triplicates. Type of data set: cell-based. On the procedure:
as §2

Another data set deals with CRKP4. Description: MIC, broth microdilution. Type of data set: cell-based. The following applies: Klebsiella pneumoniae, MHB, 1 × 10^6 CFU/ml, 16–18 h, 37°C, independent triplicates. On the procedure:
as §2

Data set [4] has as its system CREC6. Description: MIC, broth microdilution. Type of data set: cell-based. The following applies: Escherichia coli, MHB, 1 × 10^6 CFU/ml, 16–18 h, 37°C, independent triplicates. On the procedure: as §2
A further data set relates to CRKP1. Description: MIC, broth microdilution. Type of data set: cell-based. The settings on record: Klebsiella pneumoniae, MHB, 1 × 10^6 CFU/ml, 16–18 h, 37°C, independent triplicates. How it is done:
as §2

The next data set concerns CREC4. Description: MIC, broth microdilution. Type of data set: cell-based. The settings on record: Escherichia coli, MHB, 1 × 10^6 CFU/ml, 16–18 h, 37°C, independent triplicates. On the procedure:
as §2

The subject of the next data set is CRAB1. Description: MIC, broth microdilution. Type of data set: cell-based. The settings on record: Acinetobacter baumannii, MHB, 1 × 10^6 CFU/ml, 16–18 h, 37°C, independent triplicates. How it is done: as §2
For the next data set, the system named is PREC1. Description: MIC, broth microdilution. Type of data set: cell-based. The following applies: Escherichia coli, MHB, 1 × 10^6 CFU/ml, 16–18 h, 37°C, independent triplicates. How it is done: as §2
For data set [5], the system named is En. faecium (Clinical; MDR; pig, faeces), lower row. Description: MIC, broth microdilution. Type of data set: cell-based. The settings on record: Enterococcus faecium, En. faecium clinical MDR isolate, MHB, 16–18 h, 37°C, independent triplicates. How it is done:
as §2

Another data set concerns CREC1. Description: MIC, broth microdilution. Type of data set: cell-based. The following applies: Escherichia coli, MHB, 1 × 10^6 CFU/ml, 16–18 h, 37°C, independent triplicates. On the procedure: as §2
A further data set deals with CREC3. Description: MIC, broth microdilution. Type of data set: cell-based. The following applies: Escherichia coli, MHB, 1 × 10^6 CFU/ml, 16–18 h, 37°C, independent triplicates. On the procedure:
as §2

In the next data set the test system is CREC2. Description: MIC, broth microdilution. The settings on record: Escherichia coli, MHB, 1 × 10^6 CFU/ml, 16–18 h, 37°C, independent triplicates. Type of data set: cell-based. On the procedure: as §2
The subject of a further data set is P. aeruginosa UCBPP-PA01. Description: MIC, broth microdilution. Type of data set: cell-based. The settings on record: Pseudomonas aeruginosa, UCBPPPA01, MHB, 1 × 10^6 CFU/ml, 16–18 h, 37°C, independent triplicates. On the procedure: as §2
The subject of another data set is CRKP3. Description: MIC, broth microdilution. Type of data set: cell-based. The following applies: Klebsiella pneumoniae, MHB, 1 × 10^6 CFU/ml, 16–18 h, 37°C, independent triplicates. How it is done: as §2
The subject of a further data set is PREC3. Description: MIC, broth microdilution. Type of data set: cell-based. The following applies: Escherichia coli, MHB, 1 × 10^6 CFU/ml, 16–18 h, 37°C, independent triplicates. How it is done: as §2
For the next data set, the system named is S. aureus ATCC. Description: MIC, broth microdilution. Type of data set: cell-based. The following applies: Staphylococcus aureus, MHB, 1 × 10^6 CFU/ml, 16–18 h, 37°C, independent triplicates. How it is done: as §2
Another data set has as its system CRKP5. Description: MIC, broth microdilution. Type of data set: cell-based. The following applies: Klebsiella pneumoniae, MHB, 1 × 10^6 CFU/ml, 16–18 h, 37°C, independent triplicates. How it is done: as §2
Another data set relates to Salmonella SL1344. Description: MIC, broth microdilution. Type of data set: cell-based. The settings on record: MHB, 1 × 10^6 CFU/ml, 16–18 h, 37°C, independent triplicates. How it is done: as §2
Another data set relates to CRCB2. Description: MIC, broth microdilution. Type of data set: cell-based. The following applies: Citrobacter, MHB, 1 × 10^6 CFU/ml, 16–18 h, 37°C, independent triplicates. On the procedure: as §2
Another data set relates to PREC2. Description: MIC, broth microdilution. Type of data set: cell-based. The following applies: Escherichia coli, MHB, 1 × 10^6 CFU/ml, 16–18 h, 37°C, independent triplicates. On the procedure:
as §2

For data set [6], the system named is En. faecium (Clinical; MDR; pig, faeces), upper row. Description: MIC, broth microdilution. The settings on record: Enterococcus faecium, En. faecium clinical MDR isolate, MHB, 16–18 h, 37°C, independent triplicates. Type of data set: cell-based. On the procedure:
as §2

Another data set concerns CRAB2. Description: MIC, broth microdilution. The following applies: Acinetobacter baumannii, MHB, 1 × 10^6 CFU/ml, 16–18 h, 37°C, independent triplicates. Type of data set: cell-based. How it is done:
as §2

The subject of the next data set is PRCB1. Description: MIC, broth microdilution. Type of data set: cell-based. The following applies: Citrobacter, MHB, 1 × 10^6 CFU/ml, 16–18 h, 37°C, independent triplicates. On the procedure:
as §2

The next data set concerns CRKP6. Description: MIC, broth microdilution. Type of data set: cell-based. The settings on record: Klebsiella pneumoniae, MHB, 1 × 10^6 CFU/ml, 16–18 h, 37°C, independent triplicates. On the procedure: as §2
For data set [7], the system named is CRKP2. Description: Mouse peritonitis model induced by CRKP2. Type of data set: in vivo, BALB/c mice. The settings on record: 1.0 × 10^8 CFU CRKP2 i.p.; treatment at 1 and 6 h; BMAP‐27B 3, 6 or 9 mg/kg, MEM 10 mg/kg, combination 3 + 10 mg/kg; tissues 24 h after infection. On the procedure: Male BALB/c mice were used in this study, with six mice per group. The mice were infected via an intraperitoneal injection with a suspension of 1.0 × 10^8 CFU of CRKP2. At 1 and 6 h postinfection, the mice were treated with PBS, BMAP‐27B at doses of 3, 6, or 9 mg/kg, MEM at 10 mg/kg alone, or a combination of BMAP‐27B (3 mg/kg) and MEM (10 mg/kg). After 24 h of bacterial challenge, the surviving mice were euthanized by cervical dislocation. The kidneys, livers, spleens, and lungs of each mouse were harvested within […] postinfection. A portion of these organs was taken for histologic analysis using H&E staining, while the remaining tissue samples were weighed, homogenized in sterile normal saline, and serially diluted in saline. A volume of 100 µl of the homogenate dilutions was uniformly plated onto agar plates containing MEM (8 μg/ml). After overnight incubation at 37°C, colonies were counted and the results were expressed as CFU/g.

As to GRFKRLRKKLKKLFKKLSPVIPLLHLG [BMAP-27B], in the data set with bacterial suspension, the “protease concentration resulting in loss of activity” value is recorded as “above 200 μg/ml”. Moreover, in the data set with CREC6 [1], the “activity in simulated intestinal fluid (SIF)” value was “no activity” and the “viable bacterial count after incubation with simulated gastric fluid (SGF)” value is reported as “lower than that of the control group”. Moreover, in data set [2], the “Kd” value stood at 31.36 µM. Also, the “relative weights of the heart, liver, spleen, and kidneys” value in the data set on BALB/c mice is reported as “no significant differences”. The molecule also had an MIC in the data set with Acinetobacter baumannii of no more than 6.250 µg/mL. For the same molecule, the “efficacy after co‐incubation with fetal bovine serum” value with CREC6 and CRKP2 was “maintained considerable efficacy”.
As to `C[C@@H](O)[C@H]1C(=O)N2C(C(=O)O)=C(S[C@@H]3CN[C@H](C(=O)N(C)C)C3)[C@H](C)[C@H]12` [MEM, meropenem], the MIC is 32 µg/mL (≈ 83.4 µM) against CREC7; 2 µg/mL (≈ 5.22 µM) in the data set on P. aeruginosa UCBPP-PA14; 32 µg/mL (≈ 83.4 µM) against CREC5; 32 µg/mL (≈ 83.4 µM) in the data set with CRCB1; 32 µg/mL (≈ 83.4 µM) in the data set on CRCB3; greater than 32 µg/mL in the data set on CRKP2 [3]. In addition, the minimal inhibitory concentration (MIC) with CRKP4 was 32 µg/mL (≈ 83.4 µM); against CREC6 [4], 32 µg/mL (≈ 83.4 µM); in the data set with CRKP1 it was greater than 32 µg/mL; in the data set on CREC4, greater than 32 µg/mL; in the data set with CRAB1, greater than 32 µg/mL; with PREC1, less than 1 µg/mL. The MIC was 16 µg/mL (≈ 41.7 µM) in data set [5]; greater than 32 µg/mL with CREC1; 32 µg/mL (≈ 83.4 µM) with CREC3; 16 µg/mL (≈ 41.7 µM) in the data set with CREC2; less than 1 µg/mL with P. aeruginosa UCBPP-PA01; greater than 32 µg/mL against CRKP3. In addition, the MIC is less than 1 µg/mL in the data set on PREC3; less than 1 µg/mL against S. aureus ATCC; 32 µg/mL (≈ 83.4 µM) with CRKP5; less than 1 µg/mL in the data set with Salmonella SL1344; 32 µg/mL (≈ 83.4 µM) against CRCB2; less than 1 µg/mL with PREC2. The MIC is 8 µg/mL (≈ 20.9 µM) in data set [6], greater than 32 µg/mL in the data set on CRAB2, less than 1 µg/mL with PRCB1 and greater than 32 µg/mL in the data set with CRKP6. Further, the “bacterial titers in the liver, spleen, lung, and kidneys compared to the infection group” value with CRKP2 [7] is given as “only slightly lower”.
